According to patent publication US20230331707A1, “PROGRAMMED CELL NECROSIS INHIBITOR, PREPARATION METHOD THEREFOR, AND USE THEREOF” (Shanghai Institute of Organic Chemistry, Chinese Academy of …, priority 2020, published 2023):
Where two headings read alike, the source gives them in different places.

Key:
FADD−/− Jurkat cells = test: Inhibition of TNF-induced programmed necrosis of FADD deficient Jurkat cells (Cell Titer-Glo viability); type: cell-based; details: for EC50: Homo sapiens, Jurkat; for activity of inhibition of programmed necrosis compared with GSK2982772: human FADD-deficient Jurkat cells, TNFα alone or in combination with SM164
In short: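 FADD-deficient human Jurkat T leukemia cells in log phase were adjusted to 2.5×10^5/mL and plated at 40 μl per well in 384-well plates. Compounds were added, with SM164 (50 nM) where used, for a 1 h pretreatment at 37° C. TNFα (50 ng/mL) was then added, and cells were incubated 14 h at 37° C, 5% CO2. Viability was read as ATP luminescence with Cell Titer-Glo after 30 min at room temperature, with unstimulated DMSO wells set as 100%. EC50 values were calculated in Prism Graphpad.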

L929 cells = test: Inhibition of TNF-induced programmed necrosis of L929 cells (Cell Titer-Glo viability); type: cell-based, mouse; details: for EC50: Mus musculus; for inhibition of programmed necrosis (in words): mouse-derived L929 cells
In short: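 Mouse L929 fibroblasts were diluted to 6.25×10^4/ml, plated at 40 μl per well in 384-well plates, and incubated 12 hours at 37° C., 5% CO2. Compounds were added, with SM164 (500 nM) for the combination arm, and pretreated 1 h before TNFα (500 ng/mL). After 14 h, viability was read by Cell Titer-Glo luminescence against unstimulated DMSO controls, and EC50 values were fitted in Prism Graphpad.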

[1] = tested on: MEFs cells expressing RIPK1 WT; test: TSZ-induced programmed necrosis in MEFs cells expressing RIPK1 WT; type: cell-based, mouse
From the text: (§1) The adopted biological test protocol was: the effect of compounds on programmed necrosis in MEFs cells (mouse embryonic fibroblasts) with RIPK1 S161E mutation.
(§2) In order to verify the inhibitory effect of the compound of the present invention on the highly activated RIPK1 kinase at the cellular level, MEFs cells stably expressing RIPK1 S161E (simulating the activation state of RIPK1 after phosphorylation) were selected, TNFα-SM164-zVAD (Caspase inhibitor for inhibiting apoptosis) (TSZ) was used in combination to induce programmed cell necrosis, and cell viability was calculated by detecting chemiluminescence values, thereby obtaining the biological activity of the compound in inhibiting programmed necrosis.
(§3) Methods: MEFs cells replenished by RIPK1: WT-RIPK1, S161A-RIPK1 and S161E-RIPK1 were replenished in RIPK1 stable knockout cells respectively. After stable expression and being cultured to logarithmic growth phase, the cells were collected, and centrifuged at 1000 rpm for 5 min. The supernatant was discarded. Cell concentration was adjusted to 5×10^4/mL, and cells were inoculated into 384-well plates with 40 μL per well. Cell culture medium diluted SM164 (100 nM), zVAD (50 μM) and compound, each […], were added to the corresponding wells. After pretreatment at 37° C. for 1 h, 5 μL of cell culture medium diluted TNF (50 ng/mL) was added to each well in the stimulated group and 5 μL of culture medium was added to the control group. […] The unstimulated DMSO control wells (Ctrl) were taken as 100% cell viability. EC50 values of the compounds were calculated using Prism Graphpad statistical software.

[2] = tested on: MEFs cells expressing RIPK1 S161E mutant; test: TSZ-induced programmed necrosis in MEFs cells expressing RIPK1 S161E mutant; type: cell-based, mouse
From the text: as §1, §2, §3

[3] = tested on: RIPK1^K612R/K612R mutant mice; test: Digestive system inflammation in RIPK1 K612R/K612R mutant mice; type: in vivo; details: gavage 25 mg/kg, control Nec-1s 50 mg/kg
From the text: The adopted biological test scheme was: RIPK1^K612R/K612R mutant mice were used as model mice to test the effect of representative compound QY-10-40 or QY-13-19 on spontaneous intestinal inflammation.
K612R mutation leads to decreased in intracellular RIPK1 level but abnormal activation, making it sensitive to programmed necrosis and caspase-1 activation, and responding to TLRs signaling. RIPK1^K612R/K612R mice will appear responses such as age-dependent reduced RIPK1 expression and abnormal activation, spontaneous intestinal inflammation and splenomegaly.
Methods: The compounds to be tested were dissolved in 0.5% carboxymethyl cellulose according to the required concentration one day in advance, and sonicated overnight. Mice were gavaged in a volume of 0.1 ml/10 g body weight. Body weight was measured three times a week, and samples were collected at the end of the experiment. The effect of the compounds was calculated using Prism Graphpad statistical software.

[4] = 14 h, FADD−/− Jurkat cells, stimulated with TNFα + SM164, read-out: EC50 (μM) FADD−/− Jurkat cells (human) TNFα + SM164
[5] = L929, L929 cells, stimulated with TNFα + SM164, read-out: EC50 (μM) L929 cells (mouse) TNFα + SM164
[6] = L929, L929 cells, stimulated with TNFα alone, read-out: EC50 (μM) L929 cells (mouse) TNFα
[7] = FADD−/− Jurkat cells, stimulated with TNFα alone, read-out: EC50 (μM) FADD−/− Jurkat cells (human) TNFα

CN1C(=O)[C@@H](NC(=O)c2n[nH]c(Cc3ccccc3)n2)COc2ccccc21 [GSK2982772, reference compound]
EC50 (FADD−/− Jurkat cells; [4]): 4 nM | EC50 (FADD−/− Jurkat cells; read-out: EC50 (μM) FADD−/− Jurkat cells (human) TNFα): 0.68 nM | EC50 (L929 cells; [5]): > 10000 nM | EC50 (L929 cells; [6]): 2510 nM | inhibition of programmed necrosis (in words) (L929 cells): almost inactive | inhibition of programmed necrosis ([1]; 10 μM): can effectively inhibit the occurrence of programmed necrosis | inhibition of programmed necrosis ([2]; 10 μM): only shows weak inhibition

CN1C(=O)N[C@H](Cc2c[nH]c3c(Cl)cccc23)C1=O [Nec-1s, reference compound]
EC50 (FADD−/− Jurkat cells; [4]): 900 nM | EC50 (FADD−/− Jurkat cells; [7]): 228 nM | EC50 (L929 cells; L929, read-out: EC50 (μM) L929 cells (mouse) TNFα): 443 nM | inhibition of programmed necrosis ([1]; 10 μM): can effectively inhibit the occurrence of programmed necrosis | inhibition of programmed necrosis ([2]; 10 μM): does not exhibit inhibition

COc1cc2ncn(-c3ccc(CNC(=O)c4cnn(C)c4Cc4ccccc4)cc3)c2cc1OC [QY-11-76]
EC50 (FADD−/− Jurkat cells; [4]): 0.05 nM | EC50 (FADD−/− Jurkat cells; [7]): 0.0243 nM | activity of inhibition of programmed necrosis compared with GSK2982772 (FADD−/− Jurkat cells): stronger activity | EC50 (L929 cells; [5]): 0.432 nM | EC50 (L929 cells; [6]): 0.0598 nM | inhibition of programmed necrosis (in words) (L929 cells): excellently inhibit the occurrence of programmed necrosis | inhibition of programmed necrosis ([1]; 600 nM): can effectively inhibit the occurrence of programmed necrosis | inhibition of programmed necrosis ([2]; 600 nM): can significantly inhibit occurrence of programmed necrosis

Cn1ncc(C(=O)NCc2ccc(-n3cnc4c(N)nccc43)cc2)c1Cc1ccccc1 [QY-11-77]
EC50 (FADD−/− Jurkat cells; [4]): 0.838 nM | EC50 (FADD−/− Jurkat cells; [7]): 0.012 nM | EC50 (L929 cells; [5]): 0.63 nM | EC50 (L929 cells; [6]): 1.17 nM | inhibition of programmed necrosis ([1]; 600 nM): can effectively inhibit the occurrence of programmed necrosis | inhibition of programmed necrosis ([2]; 600 nM): can significantly inhibit occurrence of programmed necrosis

Cn1nnc(C(=O)NCc2ccc(-n3cnc4c(N)ncnc43)cc2)c1Cc1ccccc1 [QY-13-19, N-(4-(6-amino-9H-purin-9-yl)benzyl)-5-benzyl-1-methyl-1H-1,2,3-triazole-4-carboxamide]
EC50 (FADD−/− Jurkat cells; [4]): 0.516 nM | EC50 (FADD−/− Jurkat cells; [7]): 0.0557 nM | activity of inhibition of programmed necrosis compared with GSK2982772 (FADD−/− Jurkat cells): stronger activity | EC50 (L929 cells; [5]): 3.09 nM | EC50 (L929 cells; [6]): 1.46 nM | effect on body weight and spleen coefficient [3]: can inhibit the effect of the digestive system inflammation
